Source: ChEMBL document CHEMBL1949604, “Drug-like properties: guiding principles for the design of natural product libraries” (J Nat Prod, 2012)

Tests used:
[1] = test system: Trypanosoma brucei brucei; experiment: Antitrypanosomal activity against Trypanosoma brucei brucei; assay type: functional, organism-based
[2] = test system: Trypanosoma brucei brucei; experiment: Antitrypanosomal activity against Trypanosoma brucei brucei at 80 uM; assay type: functional

IC50 [1] [nM]	SMILES	inhibition at 80 µM [2] [%]
77	c1ccc2c(c1)Nc1cc3cccnc3c3nccc-2c13	–
32	O=C1c2cccnc2-c2nccc3c2c1nc1ccccc13 [ASCIDIDEMIN]	–
1330	c1ccc2c(c1)nc1c3nc4ccccc4c4ccnc(c5nccc2c51)c43 [EILATIN]	–
–	COC1=C(Br)[C@H](O)[C@@]2(C=C1Br)CC(C(=O)NCCCn1cnc(CCNC(=O)C3=NO[C@]4(C=C(Br)C(OC)=C(Br)[C@@H]4O)C3)c1)=NO2 [PSEUDOCERATINAZOLE A]	80
